What was measured:
Conditions in all cases: 25 °C
[1] = molecular target: Isocitrate dehydrogenase [NADP] cytoplasmic (Homo sapiens, UniProt O75874); experiment: Diaphorase/Resazurin Coupled Assay
Procedure: (§1) For WT IDH1 and IDH2, reactions were conducted at room temperature in 384-well Greiner black microtiter plates in a total volume of 10 μL of assay buffer. […] Reactions were conducted in duplicate and run kinetically. After each addition, plates were centrifuged for 60 s to ensure complete mixing of reagents.

[2] = molecular target: T1, Isocitrate dehydrogenase [NADP], mitochondrial (Homo sapiens, UniProt P48735); experiment: Diaphorase/Resazurin Coupled Assay
T1 sequence (P48735 whole entry): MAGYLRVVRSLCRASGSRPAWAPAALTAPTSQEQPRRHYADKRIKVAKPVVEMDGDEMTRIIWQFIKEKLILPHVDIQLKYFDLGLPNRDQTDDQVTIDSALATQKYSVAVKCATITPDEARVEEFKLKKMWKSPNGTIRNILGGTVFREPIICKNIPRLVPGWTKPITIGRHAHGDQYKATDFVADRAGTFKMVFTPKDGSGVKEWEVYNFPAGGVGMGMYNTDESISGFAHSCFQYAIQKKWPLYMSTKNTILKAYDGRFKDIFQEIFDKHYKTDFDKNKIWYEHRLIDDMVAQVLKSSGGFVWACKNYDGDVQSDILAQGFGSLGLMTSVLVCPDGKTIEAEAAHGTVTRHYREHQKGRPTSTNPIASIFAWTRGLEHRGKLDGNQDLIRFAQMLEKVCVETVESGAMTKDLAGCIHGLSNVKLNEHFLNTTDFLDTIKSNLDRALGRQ
Procedure: as §1

[3] = molecular target: Isocitrate dehydrogenase [NADP] cytoplasmic [R132C] (Homo sapiens, UniProt O75874, R132C); experiment: RapidFire-MS/MS and NADPH Assays
Procedure: (§2) Reactions were conducted in duplicate and quenched with final concentrations of 100 mM EDTA. After each addition plates were centrifuged for 60 s to ensure complete mixing of reagents. […] For the RapidFire-MS/MS analysis, a 0.5 μL aliquot of each well was diluted 200-fold into a separate analysis plate containing 100 μL of a f

[4] = molecular target: Isocitrate dehydrogenase [NADP] cytoplasmic [R132G] (Homo sapiens, UniProt O75874, R132G); experiment: RapidFire-MS/MS and NADPH Assays
Procedure: as §2

[5] = molecular target: Isocitrate dehydrogenase [NADP] cytoplasmic [R132H] (Homo sapiens, UniProt O75874, R132H); experiment: RapidFire-MS/MS and NADPH Assays
Procedure: as §2

[6] = molecular target: Isocitrate dehydrogenase [NADP], mitochondrial [R140Q] (Homo sapiens, UniProt P48735, R140Q); experiment: RapidFire-MS/MS and NADPH Assays
Procedure: as §2

[7] = molecular target: Isocitrate dehydrogenase [NADP], mitochondrial [R172S] (Homo sapiens, UniProt P48735, R172S); experiment: RapidFire-MS/MS and NADPH Assays
Procedure: as §2

Isocitrate dehydrogenase [NADP], mitochondrial [R140Q], sequence (P48735 40-452 R140Q limits assumed): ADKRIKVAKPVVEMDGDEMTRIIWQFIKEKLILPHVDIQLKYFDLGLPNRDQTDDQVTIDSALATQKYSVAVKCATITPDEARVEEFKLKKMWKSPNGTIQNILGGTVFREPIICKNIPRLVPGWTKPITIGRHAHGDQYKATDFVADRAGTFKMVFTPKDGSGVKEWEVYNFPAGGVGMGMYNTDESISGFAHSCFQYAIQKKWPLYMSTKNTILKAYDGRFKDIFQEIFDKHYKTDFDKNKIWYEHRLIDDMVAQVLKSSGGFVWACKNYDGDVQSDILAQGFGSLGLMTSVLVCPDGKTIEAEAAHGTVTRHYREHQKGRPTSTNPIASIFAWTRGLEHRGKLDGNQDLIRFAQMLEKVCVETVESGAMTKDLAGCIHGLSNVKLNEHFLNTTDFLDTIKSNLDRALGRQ
Isocitrate dehydrogenase [NADP], mitochondrial [R172S], sequence (P48735 40-452 R172S limits assumed): as the sequence (P48735 40-452 R140Q limits assumed) above, with Q101R, R133S counted along it
Isocitrate dehydrogenase [NADP] cytoplasmic [R132G], sequence (O75874 2-414 R132G limits assumed): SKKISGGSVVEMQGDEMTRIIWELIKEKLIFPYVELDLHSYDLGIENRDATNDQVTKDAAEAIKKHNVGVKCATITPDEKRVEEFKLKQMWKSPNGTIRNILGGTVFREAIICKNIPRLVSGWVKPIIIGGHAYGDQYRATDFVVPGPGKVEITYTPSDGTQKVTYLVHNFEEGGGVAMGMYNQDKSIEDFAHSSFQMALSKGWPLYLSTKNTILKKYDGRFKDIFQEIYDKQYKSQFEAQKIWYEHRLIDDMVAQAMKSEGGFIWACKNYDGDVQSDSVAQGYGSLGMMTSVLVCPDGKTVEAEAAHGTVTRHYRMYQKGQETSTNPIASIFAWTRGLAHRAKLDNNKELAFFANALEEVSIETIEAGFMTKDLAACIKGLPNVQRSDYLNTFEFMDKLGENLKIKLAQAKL
Isocitrate dehydrogenase [NADP] cytoplasmic [R132H], sequence (O75874 2-414 R132H limits assumed): as the sequence (O75874 2-414 R132G limits assumed) above, with G131H counted along it
Isocitrate dehydrogenase [NADP] cytoplasmic, sequence (O75874 whole entry): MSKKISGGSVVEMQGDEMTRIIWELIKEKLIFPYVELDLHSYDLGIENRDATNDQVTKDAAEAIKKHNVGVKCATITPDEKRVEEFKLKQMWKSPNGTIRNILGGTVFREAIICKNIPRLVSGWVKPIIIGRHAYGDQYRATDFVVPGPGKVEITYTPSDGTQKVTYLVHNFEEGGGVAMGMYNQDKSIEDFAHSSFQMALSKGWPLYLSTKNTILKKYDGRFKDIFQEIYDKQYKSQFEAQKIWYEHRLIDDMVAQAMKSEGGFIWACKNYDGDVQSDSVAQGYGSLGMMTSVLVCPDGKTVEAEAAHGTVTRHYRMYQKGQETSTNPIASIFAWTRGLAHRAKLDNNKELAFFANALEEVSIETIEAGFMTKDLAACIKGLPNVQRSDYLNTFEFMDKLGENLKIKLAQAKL
Isocitrate dehydrogenase [NADP] cytoplasmic [R132C], sequence (O75874 2-414 R132C limits assumed): as the sequence (O75874 2-414 R132G limits assumed) above, with G131C counted along it

With Cc1cccc(NC(=O)c2nn(Cc3c[nH]cn3)c3c2CN(C(=O)c2ccc[nH]2)CC3)c1 [GSK990] the IC50 [1] was greater than 100 µM, the IC50 [2] was greater than 100000 nM and the IC50 [3] was 4.49 µM. It also gave an IC50 [4] of 23.3 µM, an IC50 [5] of 10.9 µM and an IC50 [6] greater than 100000 nM. The IC50 [7] was greater than 100000 nM.
C[C@H](O)c1cccc(NC(=O)c2nn(Cc3ccc(F)cc3)c3c2CN(C(=O)c2ccc[nH]2)C[C@H]3C)c1 [GSK321] showed an IC50 [2] of 496 nM, an IC50 [6] of 1360 nM and an IC50 [7] of 1030 nM.
